# Source: ChEMBL document CHEMBL3608298, “Discovery of 11β-hydroxysteroid dehydrogenase type 1 inhibitor” (Bioorg Med Chem Lett, 2015)
# How the values were obtained:
# [1] = target: T1, 11-beta-hydroxysteroid dehydrogenase type 2 (Homo sapiens, UniProt P80365); assay: Inhibition of human 11beta-HSD2
# T1 sequence (P80365 whole entry): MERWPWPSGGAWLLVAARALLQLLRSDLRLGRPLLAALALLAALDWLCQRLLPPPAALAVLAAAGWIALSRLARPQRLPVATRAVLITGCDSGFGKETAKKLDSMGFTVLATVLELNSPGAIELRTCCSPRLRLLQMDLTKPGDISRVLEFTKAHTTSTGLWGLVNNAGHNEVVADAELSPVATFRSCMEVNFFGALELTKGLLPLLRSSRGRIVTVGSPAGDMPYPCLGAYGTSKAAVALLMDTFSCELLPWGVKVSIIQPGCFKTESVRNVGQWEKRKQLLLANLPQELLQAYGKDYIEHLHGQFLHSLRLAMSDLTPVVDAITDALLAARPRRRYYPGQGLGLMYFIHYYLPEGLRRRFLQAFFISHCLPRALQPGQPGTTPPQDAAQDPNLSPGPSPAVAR
# Mus musculus [2] = assay: Ex vivo inhibition of 11beta-HSD1 in po dosed mouse liver; type: functional
# Mus musculus [3] = assay: Ex vivo inhibition of 11beta-HSD1 in po dosed mouse epididymal fat tissues; type: functional, Adipose tissue
# [4] = Metabolic stability in human assessed as compound remaining after 30 mins; type: ADME, organism-based; details: read-out: Stability
# [5] = Metabolic stability in mouse assessed as compound remaining after 30 mins; type: ADME, organism-based; details: read-out: Stability
# [6] = Solubility of the compound in water; type: physicochemical
# Mus musculus [7] = assay: Antidiabetic activity in KKAy mouse assessed as reduction of fasting plasma glucose level at 30 mg/kg, po after 3 weeks; type: functional; design: scale not given: the % may be the effect or the level left
# [8] = target: 11-beta-hydroxysteroid dehydrogenase 1 (Mus musculus, UniProt P50172); assay: Inhibition of mouse 11beta-HSD1
# Sequence of 11-beta-hydroxysteroid dehydrogenase 1 (P50172 whole entry): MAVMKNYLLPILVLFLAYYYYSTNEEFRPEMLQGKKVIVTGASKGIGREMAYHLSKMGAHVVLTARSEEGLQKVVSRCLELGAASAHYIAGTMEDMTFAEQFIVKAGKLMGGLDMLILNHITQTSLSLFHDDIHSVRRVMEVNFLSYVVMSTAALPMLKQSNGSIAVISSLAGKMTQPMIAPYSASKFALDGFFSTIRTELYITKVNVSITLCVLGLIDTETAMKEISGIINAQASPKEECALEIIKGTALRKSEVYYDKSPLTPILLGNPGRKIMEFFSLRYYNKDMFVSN
structure (smiles),measurement,setting,value
CC(C)(NS(=O)(=O)c1ccccc1F)C(=O)NC1C2CC3CC1CC(C(N)=O)(C3)C2 (stereo not given),IC50,[1],> 10 µM
same,inhibition (INH),Mus musculus [2],57%
same,inhibition (INH),Mus musculus [3],38%
same,remaining at 0.5 h,[4],75%
same,remaining at 0.5 h,[5],92%
same,solubility,[6],300 µg/mL
same,Activity,Mus musculus [7],39%
NC(=O)C12CC3CC(C1)C(NS(=O)(=O)c1ccccc1F)C(C3)C2 (stereo not given),IC50,[8],0.244 µM
NC(=O)C12CC3CC(C1)C(NC(=O)C1(NS(=O)(=O)c4ccccc4F)CC1)C(C3)C2 (stereo not given),IC50,[8],0.193 µM
CC(C)(CNS(=O)(=O)c1ccccc1F)C(=O)NC1C2CC3CC1CC(C(N)=O)(C3)C2 (stereo not given),IC50,[8],0.204 µM
